Laboratory results as given in ChEMBL document CHEMBL5653615 (J Biol Chem, 2013).

What was measured:
[1] = biological target: Tyrosine-protein kinase Yes (Homo sapiens) (UniProt P07947); assay: Inhibition of human YES1 at 18.6 nM by HotSpot assay relative to control
[2] = biological target: Serine/threonine-protein kinase pim-3 (Homo sapiens) (UniProt Q86V86); assay: Inhibition of human PIM3 at 18.6 nM by HotSpot assay relative to control
[3] = biological target: T1, G protein-coupled receptor kinase 3 (Homo sapiens) (UniProt P35626); assay: Inhibition of human GRK3 at 1.82 nM by HotSpot assay relative to control
T1 sequence (whole entry): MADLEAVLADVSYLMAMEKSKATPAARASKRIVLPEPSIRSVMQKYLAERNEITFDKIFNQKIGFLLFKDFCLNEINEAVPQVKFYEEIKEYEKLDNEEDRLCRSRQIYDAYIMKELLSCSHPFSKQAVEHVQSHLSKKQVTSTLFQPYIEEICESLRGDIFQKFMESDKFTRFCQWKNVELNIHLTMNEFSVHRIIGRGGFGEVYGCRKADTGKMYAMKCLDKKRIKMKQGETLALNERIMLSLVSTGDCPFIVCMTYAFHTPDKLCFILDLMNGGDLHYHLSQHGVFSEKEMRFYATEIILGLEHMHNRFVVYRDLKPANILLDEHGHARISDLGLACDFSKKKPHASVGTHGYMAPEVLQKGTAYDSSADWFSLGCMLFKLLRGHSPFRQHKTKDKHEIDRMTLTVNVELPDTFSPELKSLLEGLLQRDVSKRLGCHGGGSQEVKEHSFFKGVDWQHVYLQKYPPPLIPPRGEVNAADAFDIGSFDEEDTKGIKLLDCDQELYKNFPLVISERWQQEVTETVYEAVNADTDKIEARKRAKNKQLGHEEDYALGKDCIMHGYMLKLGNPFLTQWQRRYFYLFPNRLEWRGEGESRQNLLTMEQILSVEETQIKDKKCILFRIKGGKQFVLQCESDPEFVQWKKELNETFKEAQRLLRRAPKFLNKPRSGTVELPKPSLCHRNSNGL

[4] = biological target: T2, Mitogen-activated protein kinase kinase kinase 2 (Homo sapiens) (UniProt Q9Y2U5); assay: Inhibition of human MEKK2 at 1.82 nM by HotSpot assay relative to control
T2 sequence (whole entry): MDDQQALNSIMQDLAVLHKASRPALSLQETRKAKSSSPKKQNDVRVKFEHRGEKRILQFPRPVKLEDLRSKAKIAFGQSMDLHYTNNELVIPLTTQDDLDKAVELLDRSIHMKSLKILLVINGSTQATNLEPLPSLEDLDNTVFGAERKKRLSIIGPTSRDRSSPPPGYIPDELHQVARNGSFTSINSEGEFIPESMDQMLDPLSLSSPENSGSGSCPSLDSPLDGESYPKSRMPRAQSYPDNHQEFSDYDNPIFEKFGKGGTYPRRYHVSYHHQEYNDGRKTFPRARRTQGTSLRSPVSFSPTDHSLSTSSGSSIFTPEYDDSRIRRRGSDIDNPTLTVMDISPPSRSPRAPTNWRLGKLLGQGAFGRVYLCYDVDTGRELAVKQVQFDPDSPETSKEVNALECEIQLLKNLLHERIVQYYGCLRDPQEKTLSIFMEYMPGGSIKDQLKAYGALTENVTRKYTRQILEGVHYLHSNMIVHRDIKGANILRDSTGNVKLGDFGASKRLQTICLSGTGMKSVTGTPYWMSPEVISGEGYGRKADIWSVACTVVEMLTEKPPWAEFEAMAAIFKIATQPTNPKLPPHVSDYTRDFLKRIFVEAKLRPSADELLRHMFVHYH

[5] = biological target: Tyrosine-protein kinase Blk (Homo sapiens) (UniProt P51451); assay: Inhibition of human BLK at 1.82 nM by HotSpot assay relative to control
Tyrosine-protein kinase Blk (Homo sapiens), sequence (P51451 2-505 limits assumed): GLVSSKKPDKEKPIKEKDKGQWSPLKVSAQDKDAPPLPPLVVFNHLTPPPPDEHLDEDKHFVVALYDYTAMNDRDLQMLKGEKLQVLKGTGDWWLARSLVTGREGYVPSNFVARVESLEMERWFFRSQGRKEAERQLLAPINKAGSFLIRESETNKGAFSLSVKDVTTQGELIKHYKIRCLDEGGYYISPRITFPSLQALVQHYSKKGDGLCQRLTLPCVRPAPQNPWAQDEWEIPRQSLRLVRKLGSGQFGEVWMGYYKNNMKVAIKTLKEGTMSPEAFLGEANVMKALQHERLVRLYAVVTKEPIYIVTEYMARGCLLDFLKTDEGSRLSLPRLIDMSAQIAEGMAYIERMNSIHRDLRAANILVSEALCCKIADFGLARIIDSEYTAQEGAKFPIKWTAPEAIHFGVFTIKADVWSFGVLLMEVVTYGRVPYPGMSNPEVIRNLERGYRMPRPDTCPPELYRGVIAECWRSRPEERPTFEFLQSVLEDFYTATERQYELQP

[6] = biological target: Serine/threonine-protein kinase 16 (Homo sapiens) (UniProt O75716); assay: Inhibition of human STK16 at 1.82 nM by HotSpot assay relative to control
Serine/threonine-protein kinase 16 (Homo sapiens), sequence (O75716 whole entry): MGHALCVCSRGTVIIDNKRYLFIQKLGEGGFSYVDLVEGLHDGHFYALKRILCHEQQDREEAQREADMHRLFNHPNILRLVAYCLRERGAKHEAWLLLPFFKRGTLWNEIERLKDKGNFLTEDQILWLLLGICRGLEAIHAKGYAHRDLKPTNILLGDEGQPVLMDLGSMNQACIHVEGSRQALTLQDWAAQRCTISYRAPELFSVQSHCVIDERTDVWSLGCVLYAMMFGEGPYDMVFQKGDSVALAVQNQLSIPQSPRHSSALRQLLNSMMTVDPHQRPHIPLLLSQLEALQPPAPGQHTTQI

[7] = biological target: Death-associated protein kinase 1 (Homo sapiens) (UniProt P53355); assay: Inhibition of human DAPK1 at 1.82 nM by HotSpot assay relative to control
Death-associated protein kinase 1 (Homo sapiens), sequence (P53355 whole entry, looked up): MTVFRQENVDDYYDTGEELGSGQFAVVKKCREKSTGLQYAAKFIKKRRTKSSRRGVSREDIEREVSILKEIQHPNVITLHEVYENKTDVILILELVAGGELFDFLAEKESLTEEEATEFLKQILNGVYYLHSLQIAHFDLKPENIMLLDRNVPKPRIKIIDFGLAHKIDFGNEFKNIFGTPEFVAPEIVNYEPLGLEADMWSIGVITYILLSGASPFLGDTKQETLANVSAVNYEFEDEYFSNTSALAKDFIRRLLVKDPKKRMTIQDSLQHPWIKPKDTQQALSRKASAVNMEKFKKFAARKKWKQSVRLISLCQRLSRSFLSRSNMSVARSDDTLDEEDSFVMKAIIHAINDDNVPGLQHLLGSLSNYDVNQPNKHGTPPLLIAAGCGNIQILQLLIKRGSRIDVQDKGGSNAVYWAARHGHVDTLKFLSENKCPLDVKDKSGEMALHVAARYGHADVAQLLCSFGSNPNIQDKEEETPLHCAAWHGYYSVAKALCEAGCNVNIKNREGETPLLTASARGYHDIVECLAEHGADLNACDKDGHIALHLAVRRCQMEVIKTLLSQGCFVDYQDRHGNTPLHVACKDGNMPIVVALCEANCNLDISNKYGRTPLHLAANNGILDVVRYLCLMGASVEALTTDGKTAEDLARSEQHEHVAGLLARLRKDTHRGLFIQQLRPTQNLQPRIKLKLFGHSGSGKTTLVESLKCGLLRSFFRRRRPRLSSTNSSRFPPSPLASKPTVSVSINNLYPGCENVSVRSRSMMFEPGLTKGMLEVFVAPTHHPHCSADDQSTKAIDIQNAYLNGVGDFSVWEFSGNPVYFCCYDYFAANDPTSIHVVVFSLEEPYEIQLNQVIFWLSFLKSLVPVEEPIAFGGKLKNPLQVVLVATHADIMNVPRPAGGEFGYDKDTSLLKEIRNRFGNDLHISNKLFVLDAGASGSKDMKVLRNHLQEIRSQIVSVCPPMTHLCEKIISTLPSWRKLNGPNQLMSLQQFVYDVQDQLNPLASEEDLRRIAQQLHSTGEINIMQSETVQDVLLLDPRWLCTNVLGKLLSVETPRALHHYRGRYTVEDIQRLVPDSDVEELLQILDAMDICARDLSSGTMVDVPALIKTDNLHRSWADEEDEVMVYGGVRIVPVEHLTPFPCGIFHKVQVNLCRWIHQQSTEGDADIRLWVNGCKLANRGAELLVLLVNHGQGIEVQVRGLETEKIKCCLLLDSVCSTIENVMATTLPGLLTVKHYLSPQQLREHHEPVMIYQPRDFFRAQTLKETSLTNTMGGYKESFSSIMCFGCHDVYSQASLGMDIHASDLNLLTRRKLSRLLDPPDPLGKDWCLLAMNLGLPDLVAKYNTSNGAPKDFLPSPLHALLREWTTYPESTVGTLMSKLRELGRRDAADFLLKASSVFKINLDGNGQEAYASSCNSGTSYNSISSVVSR

[8] = biological target: Serine/threonine-protein kinase B-raf (Homo sapiens) (UniProt P15056); assay: Inhibition of human BRAF at 1.82 nM by HotSpot assay relative to control
Serine/threonine-protein kinase B-raf (Homo sapiens), sequence (P15056 whole entry): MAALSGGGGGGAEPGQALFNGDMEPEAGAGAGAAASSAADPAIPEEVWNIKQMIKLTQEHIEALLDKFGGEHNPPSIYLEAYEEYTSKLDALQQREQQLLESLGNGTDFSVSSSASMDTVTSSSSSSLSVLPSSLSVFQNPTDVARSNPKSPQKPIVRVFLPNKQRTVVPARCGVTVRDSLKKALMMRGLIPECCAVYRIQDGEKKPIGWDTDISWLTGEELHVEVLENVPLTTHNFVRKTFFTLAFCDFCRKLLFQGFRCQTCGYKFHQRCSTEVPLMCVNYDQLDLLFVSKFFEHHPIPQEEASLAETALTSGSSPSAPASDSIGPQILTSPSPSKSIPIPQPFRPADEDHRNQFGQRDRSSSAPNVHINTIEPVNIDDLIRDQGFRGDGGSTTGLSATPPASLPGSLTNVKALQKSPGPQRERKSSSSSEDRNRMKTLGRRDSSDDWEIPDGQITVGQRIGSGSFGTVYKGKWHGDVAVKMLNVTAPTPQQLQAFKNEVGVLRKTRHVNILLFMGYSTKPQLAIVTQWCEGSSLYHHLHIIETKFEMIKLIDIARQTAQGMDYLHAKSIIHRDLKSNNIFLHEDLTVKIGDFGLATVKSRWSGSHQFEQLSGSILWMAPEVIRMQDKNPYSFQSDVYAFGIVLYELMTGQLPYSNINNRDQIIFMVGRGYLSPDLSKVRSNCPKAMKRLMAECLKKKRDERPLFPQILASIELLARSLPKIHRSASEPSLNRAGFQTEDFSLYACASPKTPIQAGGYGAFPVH

[9] = biological target: Non-receptor tyrosine-protein kinase TYK2 (Homo sapiens) (UniProt P29597); assay: Inhibition of human TYK2 at 1.82 nM by HotSpot assay relative to control
Non-receptor tyrosine-protein kinase TYK2 (Homo sapiens), sequence (P29597 whole entry): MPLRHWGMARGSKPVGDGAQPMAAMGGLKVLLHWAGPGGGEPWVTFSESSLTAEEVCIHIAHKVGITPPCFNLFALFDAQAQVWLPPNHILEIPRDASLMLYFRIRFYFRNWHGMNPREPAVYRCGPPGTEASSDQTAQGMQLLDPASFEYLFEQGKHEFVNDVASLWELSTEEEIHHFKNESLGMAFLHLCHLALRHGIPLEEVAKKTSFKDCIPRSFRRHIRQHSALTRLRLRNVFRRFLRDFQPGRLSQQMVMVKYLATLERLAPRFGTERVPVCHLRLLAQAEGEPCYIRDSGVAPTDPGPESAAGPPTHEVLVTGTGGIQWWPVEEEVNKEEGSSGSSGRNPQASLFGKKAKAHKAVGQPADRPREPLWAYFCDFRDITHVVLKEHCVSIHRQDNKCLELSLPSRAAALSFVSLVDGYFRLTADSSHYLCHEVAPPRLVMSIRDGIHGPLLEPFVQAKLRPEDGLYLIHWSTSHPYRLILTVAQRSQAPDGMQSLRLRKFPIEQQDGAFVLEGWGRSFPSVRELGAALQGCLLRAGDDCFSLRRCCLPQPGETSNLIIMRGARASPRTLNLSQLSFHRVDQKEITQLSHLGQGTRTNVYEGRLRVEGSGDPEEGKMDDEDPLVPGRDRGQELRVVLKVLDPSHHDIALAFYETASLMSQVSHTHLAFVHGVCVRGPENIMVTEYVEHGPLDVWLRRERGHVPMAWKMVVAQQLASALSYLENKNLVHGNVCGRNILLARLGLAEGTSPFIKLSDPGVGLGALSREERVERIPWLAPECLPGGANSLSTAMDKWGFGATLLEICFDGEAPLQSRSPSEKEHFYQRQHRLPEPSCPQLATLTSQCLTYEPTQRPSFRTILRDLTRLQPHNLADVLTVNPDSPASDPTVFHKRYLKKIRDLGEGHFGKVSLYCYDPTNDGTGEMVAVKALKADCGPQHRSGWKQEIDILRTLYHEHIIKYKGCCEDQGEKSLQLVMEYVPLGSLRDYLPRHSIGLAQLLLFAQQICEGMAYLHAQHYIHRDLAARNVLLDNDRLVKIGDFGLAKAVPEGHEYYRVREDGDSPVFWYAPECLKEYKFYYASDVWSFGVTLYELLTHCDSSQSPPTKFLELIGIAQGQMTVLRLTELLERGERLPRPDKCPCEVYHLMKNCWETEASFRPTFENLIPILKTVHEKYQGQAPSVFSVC

[10] = biological target: T3, Ephrin type-B receptor 3 (Homo sapiens) (UniProt P54753); assay: Inhibition of human EPHB3 at 1.82 nM by HotSpot assay relative to control
T3 sequence (whole entry): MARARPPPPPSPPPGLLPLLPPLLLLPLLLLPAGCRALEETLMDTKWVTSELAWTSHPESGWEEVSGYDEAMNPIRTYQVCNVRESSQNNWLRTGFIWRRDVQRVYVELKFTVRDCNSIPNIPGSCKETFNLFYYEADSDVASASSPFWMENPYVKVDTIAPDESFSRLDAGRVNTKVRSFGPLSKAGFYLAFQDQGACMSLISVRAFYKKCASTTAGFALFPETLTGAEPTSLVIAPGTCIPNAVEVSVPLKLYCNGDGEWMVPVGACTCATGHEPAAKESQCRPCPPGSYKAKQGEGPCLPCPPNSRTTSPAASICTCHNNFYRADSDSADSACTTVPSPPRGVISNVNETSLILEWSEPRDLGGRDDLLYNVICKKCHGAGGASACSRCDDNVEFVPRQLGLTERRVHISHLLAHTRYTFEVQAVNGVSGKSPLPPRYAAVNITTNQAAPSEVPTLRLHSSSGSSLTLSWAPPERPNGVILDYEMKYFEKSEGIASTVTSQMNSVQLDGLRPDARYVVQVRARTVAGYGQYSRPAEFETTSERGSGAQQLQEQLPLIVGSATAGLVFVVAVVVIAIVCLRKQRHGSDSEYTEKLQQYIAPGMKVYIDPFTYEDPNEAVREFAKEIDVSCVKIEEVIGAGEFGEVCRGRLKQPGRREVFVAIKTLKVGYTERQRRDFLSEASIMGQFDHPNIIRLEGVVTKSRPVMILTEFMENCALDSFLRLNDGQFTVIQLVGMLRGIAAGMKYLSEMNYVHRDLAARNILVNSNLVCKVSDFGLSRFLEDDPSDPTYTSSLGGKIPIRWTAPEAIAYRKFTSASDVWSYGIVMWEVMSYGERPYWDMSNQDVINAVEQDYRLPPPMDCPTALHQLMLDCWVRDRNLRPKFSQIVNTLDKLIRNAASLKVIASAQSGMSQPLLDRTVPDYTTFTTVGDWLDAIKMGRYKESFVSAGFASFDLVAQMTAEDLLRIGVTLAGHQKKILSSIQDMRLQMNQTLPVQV

[11] = biological target: Phosphorylase b kinase gamma catalytic chain, skeletal muscle/heart isoform (Homo sapiens) (UniProt Q16816); assay: Inhibition of human PHKg1 at 1.82 nM by HotSpot assay relative to control

Tyrosine-protein kinase Yes (Homo sapiens), sequence (P07947 2-543 limits assumed): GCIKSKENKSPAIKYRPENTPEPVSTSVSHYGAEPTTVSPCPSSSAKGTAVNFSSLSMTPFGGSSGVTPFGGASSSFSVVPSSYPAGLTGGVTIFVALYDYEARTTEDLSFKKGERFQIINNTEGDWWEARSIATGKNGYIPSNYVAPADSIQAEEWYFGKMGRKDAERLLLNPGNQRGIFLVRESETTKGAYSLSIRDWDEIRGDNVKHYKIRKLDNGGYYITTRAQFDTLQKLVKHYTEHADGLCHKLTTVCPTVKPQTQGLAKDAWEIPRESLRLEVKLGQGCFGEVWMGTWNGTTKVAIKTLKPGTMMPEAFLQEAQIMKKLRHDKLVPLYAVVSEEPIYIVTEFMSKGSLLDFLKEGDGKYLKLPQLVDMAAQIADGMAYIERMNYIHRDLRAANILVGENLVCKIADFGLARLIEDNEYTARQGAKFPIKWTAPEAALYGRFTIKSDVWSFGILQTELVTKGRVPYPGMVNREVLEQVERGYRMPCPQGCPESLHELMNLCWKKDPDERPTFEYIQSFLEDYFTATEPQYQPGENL

C[C@]1(O)C[C@@H](c2nc(-c3ccc4ccc(-c5ccccc5)nc4c3)c3c(N)nccn32)C1
inhibition [1]: 4.32% | inhibition [2]: 20.9%

C[C@@]1(C(=O)Nc2ccc(F)nc2)CCCN1c1nc(Nc2cc(C3CC3)n[nH]2)c2cccn2n1
inhibition [3]: -5.67% | inhibition [4]: -7.18% | inhibition [5]: -5.89% | inhibition [6]: -1.36% | inhibition [7]: 3.56% | inhibition [8]: 7.49% | inhibition [9]: 1.02% | inhibition [10]: 2.89% | inhibition [11]: 2.68%
